Reference: patent US10766869B2, “Triazoles for the treatment of demyelinating dieases” (Vertex Pharmaceuticals Incorporated, priority 2015, dated 2020)

Tested on: primary rat mixed cortical cells
Assay: In vitro myelination assay (MBP positive myelin strands, fold myelin pixels above background)
Format: cell-based
Conditions: Rattus norvegicus, read-out: Fold myelin pixels above background relative to baseline of no added compound; for fold induction at 1 µM: 1.0 μM compound; for fold induction at 10 µM: 10.0 μM compound
Method in brief: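 Fourteen-day treatment of primary P1 rat mixed cortical cultures, re-dosed at days 6 and 10, at 1.0 μM and 10.0 μM. MBP immunofluorescence was imaged at 10× and myelin strands quantified by software, normalised to untreated wells as fold above background.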

| Compound | fold induction at 1 µM | fold induction at 10 µM |
| --- | --- | --- |
| CC(F)(F)c1cc(Nc2ncn(-c3cccc(F)c3)n2)nc(N2CCN(C3COC3)CC2)c1 [Compound 860, 4-(1,1-difluoroethyl)-N-[1-(3-fluorophenyl)-1,2,4-triazol-3-yl]-6-[4-(oxetan-3-yl)piperazin-1-yl]pyridin-2-amine] | 10 to 100 | 1 to 10 |
| Cc1c(Nc2ncn(-c3ccccn3)n2)cc(N2CCN(C3COC3)CC2)cc1OC(C)C [Compound 862, N-[3-isopropoxy-2-methyl-5-[4-(oxetan-3-yl)piperazin-1-yl]phenyl]-1-(2-pyridyl)-1,2,4-triazol-3-amine] | 1 to 10 | 10 to 100 |
| Clc1cc(Nc2ncn(-c3ccncn3)n2)cc(N2CC(N3CCOCC3)C2)c1 [Compound 863, N-[3-chloro-5-(3-morpholinoazetidin-1-yl)phenyl]-1-pyrimidin-4-yl-1,2,4-triazol-3-amine] | 10 to 100 | 10 to 100 |
| Cc1cc(Nc2ncn(-c3cc(F)cc(F)c3)n2)cc(C(=O)N2CCN(C3COC3)CC2)c1 [Compound 864, [3-[[1-(3,5-difluorophenyl)-1,2,4-triazol-3-yl]amino]-5-methyl-phenyl]-[4-(oxetan-3-yl)piperazin-1-yl]methanone] | 10 to 100 | 10 to 100 |
| Cc1cc(Nc2ncn(-c3ccc(F)c(F)c3)n2)cc(OCC2CCOC2)c1 (stereo not shown) [Compound 865, 1-(3,4-difluorophenyl)-N-[3-methyl-5-(tetrahydrofuran-3-ylmethoxy)phenyl]-1,2,4-triazol-3-amine] | 1 to 10 | 1 to 10 |
| Cc1cc(Nc2ncn(-c3cc(F)cc(F)c3)n2)cc(N2CC(CN3CCOCC3)C2)c1 [Compound 866, 1-(3,5-difluorophenyl)-N-[3-methyl-5-[3-(morpholinomethyl)azetidin-1-yl]phenyl]-1,2,4-triazol-3-amine] | 1 to 10 | 10 to 100 |
| FC(F)c1cc(Nc2ncn(-c3cccc(C(F)(F)F)c3)n2)nc(N2CCOCC2)c1 [Compound 867, 4-(difluoromethyl)-6-morpholino-N-[1-[3-(trifluoromethyl)phenyl]-1,2,4-triazol-3-yl]pyridin-2-amine] | 10 to 100 | 10 to 100 |
| Fc1cc(F)cc(-n2cnc(Nc3cc(N4CC(N5CCOCC5)C4)cc(N4CC(N5CCOCC5)C4)c3)n2)c1 [Compound 868, N-[3,5-bis(3-morpholinoazetidin-1-yl)phenyl]-1-(3,5-difluorophenyl)-1,2,4-triazol-3-amine] | 1 to 10 | 1 to 10 |
| Cc1cc(Nc2ncn(-c3cc(F)cc(F)c3)n2)c(F)c(NC2(C)COC2)c1 [Compound 869, N3-[1-(3,5-difluorophenyl)-1,2,4-triazol-3-yl]-2-fluoro-5-methyl-N1-(3-methyloxetan-3-yl)benzene-1,3-diamine] | 10 to 100 | 1 to 10 |
| Cc1cc(N2CC(N3CCOCC3)C2)cc(Nc2ncn(-c3cc(F)cc(F)c3)n2)c1F [Compound 870, 1-(3,5-difluorophenyl)-N-[2-fluoro-3-methyl-5-(3-morpholinoazetidin-1-yl)phenyl]-1,2,4-triazol-3-amine] | 1 to 10 | 1 to 10 |
| Cc1cc(Nc2ncn(-c3cc(F)cc(F)c3)n2)cc(N2CC(C)C(N3CCOCC3)C2)c1 (stereo not shown) [Compound 871, 1-(3,5-difluorophenyl)-N-[3-methyl-5-(3-methyl-4-morpholino-pyrrolidin-1-yl)phenyl]-1,2,4-triazol-3-amine] | 1 to 10 | 1 to 10 |
| CCC1COCCN1CCNc1cc(C)cc(Nc2ncn(-c3cc(F)cc(F)c3)n2)c1 (stereo not shown) [Compound 872, N3-[1-(3,5-difluorophenyl)-1,2,4-triazol-3-yl]-N1-[2-(3-ethylmorpholin-4-yl)ethyl]-5-methyl-benzene-1,3-diamine] | 10 to 100 | ≤ 1 |
| Cc1cc(Nc2ncn(-c3cc(F)cc(F)c3)n2)cc(NC2CCCN(CCF)C2)c1 (stereo not shown) [Compound 873, N3-[1-(3,5-difluorophenyl)-1,2,4-triazol-3-yl]-N1-[1-(2-fluoroethyl)-3-piperidyl]-5-methyl-benzene-1,3-diamine] | 1 to 10 | ≤ 1 |
| Cc1cc(Nc2ncn(-c3cc(F)cc(F)c3)n2)cc(N2CCC(CCO)CC2)c1 [Compound 874, 2-[1-[3-[[1-(3,5-difluorophenyl)-1,2,4-triazol-3-yl]amino]-5-methyl-phenyl]-4-piperidyl]ethanol] | 10 to 100 | ≤ 1 |
| Cc1cc(Nc2ncn(-c3cc(F)cc(F)c3)n2)cc(N2CCN(C3CCCC3O)CC2)c1 (stereo not shown) [Compound 875, 2-[4-[3-[[1-(3,5-difluorophenyl)-1,2,4-triazol-3-yl]amino]-5-methyl-phenyl]piperazin-1-yl]cyclopentanol] | 10 to 100 | ≤ 1 |
| [2H]C1([2H])N(c2cc(Nc3ncn(-c4cc(F)cc(F)c4)n3)cc(C(F)F)c2)C([2H])([2H])C([2H])([2H])C([2H])([2H])C1([2H])[2H] [Compound 876, N-[3-(2,2,3,3,4,4,5,5,6,6-decadeuterio-1-piperidyl)-5-(difluoromethyl)phenyl]-1-(3,5-difluorophenyl)-1,2,4-triazol-3-amine] | 10 to 100 | 10 to 100 |
| Cc1cc(Nc2ncn(-c3cc(F)cc(F)c3)n2)cc(N2CCC(CCCO)CC2)c1 [Compound 877, 3-[1-[3-[[1-(3,5-difluorophenyl)-1,2,4-triazol-3-yl]amino]-5-methyl-phenyl]-4-piperidyl]propan-1-ol] | 1 to 10 | 1 to 10 |
| Cc1cc(Nc2ncn(-c3cc(F)cc(F)c3)n2)cc(N2CCN(C3CCCCC3O)CC2)c1 (stereo not shown) [Compound 878, 2-[4-[3-[[1-(3,5-difluorophenyl)-1,2,4-triazol-3-yl]amino]-5-methyl-phenyl]piperazin-1-yl]cyclohexanol] | 10 to 100 | ≤ 1 |
| Cc1cc(Nc2ncn(-c3cc(F)cc(F)c3)n2)cc(N2CCC(N3CCC(O)CC3)CC2)c1 [Compound 879, 1-[1-[3-[[1-(3,5-difluorophenyl)-1,2,4-triazol-3-yl]amino]-5-methyl-phenyl]-4-piperidyl]piperidin-4-ol] | ≤ 1 | ≤ 1 |
| Cc1cc(Nc2ncn(-c3cc(F)cc(F)c3)n2)cc(NC2CCN(CCN3CCOCC3)C2)c1 (stereo not shown) [Compound 880, N3-[1-(3,5-difluorophenyl)-1,2,4-triazol-3-yl]-5-methyl-N1-[1-(2-morpholinoethyl)pyrrolidin-3-yl]benzene-1,3-diamine] | 1 to 10 | ≤ 1 |
| Cc1cc(Nc2ncn(-c3cc(F)cc(F)c3)n2)cc(NC2CN(C3COC3)C2)c1 [Compound 881, N3-[1-(3,5-difluorophenyl)-1,2,4-triazol-3-yl]-5-methyl-N1-[1-(oxetan-3-yl)azetidin-3-yl]benzene-1,3-diamine] | 10 to 100 | ≤ 1 |
| Cc1cc(NCC(C)N2CC(C)OC(C)C2)cc(Nc2ncn(-c3cc(F)cc(F)c3)n2)c1 (stereo not shown) [Compound 882, N1-[1-(3,5-difluorophenyl)-1,2,4-triazol-3-yl]-N3-[2-(2,6-dimethylmorpholin-4-yl)propyl]-5-methyl-benzene-1,3-diamine] | 1 to 10 | 1 to 10 |
| [2H]C1([2H])N(C(=O)C2CC2)C([2H])([2H])C([2H])([2H])N(c2cc(Nc3ncn(-c4cc(F)cc(F)c4)n3)cc(C(F)(F)F)c2)C1([2H])[2H] [Compound 883, cyclopropyl-[2,2,3,3,5,5,6,6-octadeuterio-4-[3-[[1-(3,5-difluorophenyl)-1,2,4-triazol-3-yl]amino]-5-(trifluoromethyl)phenyl]piperazin-1-yl]methanone] | 10 to 100 | 1 to 10 |
| Cc1cc(Nc2ncn(-c3cc(F)cc(F)c3)n2)cc(NC2CCOCC2N2CCCC2)c1 (stereo not shown) [Compound 884, N3-[1-(3,5-difluorophenyl)-1,2,4-triazol-3-yl]-5-methyl-N1-(3-pyrrolidin-1-yltetrahydropyran-4-yl)benzene-1,3-diamine] | 1 to 10 | ≤ 1 |
| [2H]C1([2H])N(CC2COCCO2)C([2H])([2H])C([2H])([2H])N(c2cc(C)cc(Nc3ncn(-c4cc(F)cc(F)c4)n3)c2)C1([2H])[2H] (stereo not shown) [Compound 885, 1-(3,5-difluorophenyl)-N-[3-methyl-5-[2,2,3,3,5,5,6,6-octadeuterio-4-(1,4-dioxan-2-ylmethyl)piperazin-1-yl]phenyl]-1,2,4-triazol-3-amine] | 10 to 100 | ≤ 1 |
| Cc1cc(Nc2ncn(-c3cc(F)cc(F)c3)n2)cc(NC2(C(=O)N(C)C)CCC2)c1 [Compound 887, 1-[3-[[1-(3,5-difluorophenyl)-1,2,4-triazol-3-yl]amino]-5-methyl-anilino]-N,N-dimethyl-cyclobutanecarboxamide] | 10 to 100 | 10 to 100 |
| Cc1cc(Nc2ncn(-c3cc(F)cc(F)c3)n2)cc(N2CCOC(C3CCCO3)C2)c1 (stereo not shown) [Compound 888, 1-(3,5-difluorophenyl)-N-[3-methyl-5-(2-tetrahydrofuran-2-ylmorpholin-4-yl)phenyl]-1,2,4-triazol-3-amine] | 1 to 10 | 1 to 10 |
| Cc1cc(Nc2ncn(-c3cc(F)cc(F)c3)n2)cc(N2CCN3CCC2C3)c1 (stereo not shown) [Compound 889, N-[3-(1,4-diazabicyclo[3.2.1]octan-4-yl)-5-methyl-phenyl]-1-(3,5-difluorophenyl)-1,2,4-triazol-3-amine] | 10 to 100 | ≤ 1 |
| Cc1cc(Nc2ncn(-c3cc(F)cc(F)c3)n2)cc(N2CC(C3CCOC3)C2)c1 (stereo not shown) [Compound 890, 1-(3,5-difluorophenyl)-N-[3-methyl-5-(3-tetrahydrofuran-3-ylazetidin-1-yl)phenyl]-1,2,4-triazol-3-amine] | 1 to 10 | 10 to 100 |
